Measurements: patent US7268152B2, “Glucocorticoid mimetics, methods of making them, pharmaceutical compositions, and uses thereof” (Boehringer Ingelheim Pharmaceuticals, Inc., priority 2002, dated 2007)

Columns and labels:
[1] = target: T1, human glucocorticoid receptor (GR) complex (Homo sapiens, UniProt P04150); assay: Glucocorticoid receptor competitive binding assay (fluorescence polarization); details: competition with TAMRA-labeled dexamethasone
T1 construct: made in house; host or cells: insect expression system (baculovirus lysate)
T1 sequence (P04150 1-777): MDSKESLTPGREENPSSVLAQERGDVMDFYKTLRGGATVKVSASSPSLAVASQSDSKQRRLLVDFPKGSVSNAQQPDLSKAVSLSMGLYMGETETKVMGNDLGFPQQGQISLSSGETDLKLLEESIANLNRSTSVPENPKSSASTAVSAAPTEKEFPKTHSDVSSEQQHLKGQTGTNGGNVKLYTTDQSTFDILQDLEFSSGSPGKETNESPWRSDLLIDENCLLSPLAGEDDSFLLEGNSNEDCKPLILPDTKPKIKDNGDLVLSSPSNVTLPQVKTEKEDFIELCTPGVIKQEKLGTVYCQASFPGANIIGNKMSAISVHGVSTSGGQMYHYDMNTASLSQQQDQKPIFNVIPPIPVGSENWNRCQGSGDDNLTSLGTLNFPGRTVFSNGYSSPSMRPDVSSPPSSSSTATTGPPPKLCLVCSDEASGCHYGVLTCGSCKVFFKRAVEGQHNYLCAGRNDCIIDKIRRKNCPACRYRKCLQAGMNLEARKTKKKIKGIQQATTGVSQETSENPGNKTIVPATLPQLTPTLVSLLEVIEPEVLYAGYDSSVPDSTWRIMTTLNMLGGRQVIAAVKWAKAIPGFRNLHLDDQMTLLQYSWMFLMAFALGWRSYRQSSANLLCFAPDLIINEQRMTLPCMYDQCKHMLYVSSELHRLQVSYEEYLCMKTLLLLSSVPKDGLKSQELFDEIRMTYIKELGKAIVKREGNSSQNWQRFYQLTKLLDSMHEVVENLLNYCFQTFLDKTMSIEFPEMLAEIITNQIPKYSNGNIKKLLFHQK
Method in brief: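 FP competition against 15 nM TAMRA-labeled dexamethasone (stock added) for GR complex in baculovirus insect-cell lysate, buffer 10 mM TES, 50 mM KCl, 20 mM molybdate, pH 7.4 with 1 mM DTT. Incubated 1 h at room temperature, read at ex 550/em 580 nm; IC50 from 4-parameter logistic fit.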

glucocorticoid receptor = assay: One or more of the above assays (GR binding and GR cell assays; not specified which); format: cell-based; details: in one or more of the above assays
Method: This assay uses fluorescence polarization (FP) to quantitate the ability of test compounds to compete with tetramethyl rhodamine (TAMRA)-labeled dexamethasone for binding to a human glucocorticoid receptor (GR) complex prepared from an insect expression system. The assay buffer was: 10 mM TES, 50 mM KCl, 20 mM Na2MoO4.2H2O, 1.5 mM EDTA, 0.04% w/v CHAPS, 10% v/v glycerol, 1 mM dithiothreitol, pH 7.4. Test compounds were dissolved to 1 mM in neat DMSO and then further diluted to 10×assay concentration in assay buffer supplemented with 10% v/v DMSO. Test compounds were serially diluted at 10×assay concentrations in 10% DMSO-containing buffer in 96-well polypropylene plates. […] Positive controls were reaction mixtures containing no test compound; negative controls (blanks) were reaction mixtures containing 0.7 μM to 2 μM dexamethasone. […] IC50 values were determined by iterative non-linear curve fitting of the FP signal data to a 4-parameter logistic equation.
B. Glucocorticoid Receptor Cell Assays
1. Induction of Aromatase in Fibroblasts (Cell Assay for Transactivation)
Dexamethasone, a synthetic ligand to the glucocorticoid receptor (GR), induces expression of aromatase in human foreskin fibroblast cells. The activity of aromatase is measured by the conversion of testosterone to estradiol in culture media.
On the day of the experiment, the media in the wells is replaced with fresh media. Cells are treated with test compounds to final concentrations of 10^−5 M to 10 ^−8 M, and testosterone to a final concentration of 300 ng/mL. Each well has a total volume of 100 μL. Samples are made in duplicates. Control wells include: (a) wells that receive testosterone only, and (b) wells that receive testosterone plus 2 μM of dexamethasone to provide maximum induction of aromatase. Plates are incubated at 37° C. overnight (15 to 18 hours), and supernatants are harvested at the end of incubation. […] The amount of estradiol is inversely proportional to the ELISA signals in each well. The extent of aromatase induction by test compounds is expressed as a relative percentage to dexamethasone. EC50 values of test compounds are derived by non-linear curve fitting.
2. Inhibition of IL-6 Production in Fibroblasts (Cell Assay for Transrepression)
Human foreskin fibroblast cells produce IL-6 in response to stimulation by pro-inflammatory cytokine IL-1.
On the next day, media in the wells is replaced with fresh media. Cells are treated with IL-1 (rhIL-1α, R&D Systems Cat. No. 200-LA) to a final concentration of 1 ng/mL, and with test compounds to final concentrations of 10 ^−5 M to 10 ^−8 M, in a total volume of 200 μL per well. Samples are done in duplicates. […] Positive control wells receive IL-1 only and represent maximum (or 100%) amount of IL-6 production. Plates are incubated at 37° C. overnight (15 to 18 hours), and supernatants are harvested at the end of incubation. IL-6 levels in the supernatants are determined by the ELISA kits for IL-6 (MedSystems Diagnostics GmbH, Vienna, Austria, Cat. No. BMS213TEN) according to manufacture's instructions. The extent of inhibition of IL-6 by test compounds is expressed in percentage relative to positive controls. IC50 values of test compounds are derived by non-linear curve fitting.
Evaluation of agonist or antagonist activity of compounds binding to the glucocorticoid receptor may be determined by any of the assays.
3. Modulation of Tyrosine Aminotransferase (TAT) Induction in Rat Hepatoma Cells
Testing of compounds for agonist or antagonist activity in induction of tyrosine aminotransferase (TAT) in rat hepatoma cells.
H4-II-E-C3 cells were incubated overnight in 96 well plates (20,000 cells/100 μL/well) in MEM medium containing 10% heat inactivated FBS and 1% nonessential amino acids. On the next day, cells were stimulated with the indicated concentrations of dexamethasone or test compound (dissolved in DMSO, final DMSO concentration 0.2%) for 18 hours. Control cells were treated with 0.2% DMSO.

| IC50 [1] [nM] | Structure (SMILES) | activity as agonists of the glucocorticoid receptor function (glucocorticoid receptor) |
| --- | --- | --- |
| ≤ 100 | COc1ccc(F)cc1C(C)(C)CC(O)(Cc1cc(C)cc(Cl)c1)C(F)(F)F (stereo not shown) [2-(3-Chloro-5-methylbenzyl)-1,1,1-trifluoro-4-(5-fluoro-2-methoxyphenyl)-4-methylpentan-2-ol] | activity as agonists |
| ≤ 100 | COc1ccc(F)cc1C(C)(C)CC(O)(Cc1cc(Br)cc(C)c1F)C(F)(F)F (stereo not shown) [2-(5-Bromo-2-fluoro-3-methylbenzyl)-1,1,1-trifluoro-4-(5-fluoro-2-methoxyphenyl)-4-methylpentan-2-ol] | activity as agonists |
| ≤ 100 | COc1ccc(F)cc1C(C)(C)CC(O)(Cc1cc(C(F)(F)F)cc(Cl)c1F)C(F)(F)F (stereo not shown) [2-(3-Chloro-2-fluoro-5-trifluoromethylbenzyl)-1,1,1-trifluoro-4-(5-fluoro-2-methoxyphenyl)-4-methylpentan-2-ol] | activity as agonists |
| ≤ 100 | COc1ccc(F)cc1C(C)(C)CC(O)(Cc1ccc(C#N)cc1Cl)C(F)(F)F (stereo not shown) [3-Chloro-4-[4-(5-fluoro-2-methoxyphenyl)-2-hydroxy-4-methyl-2-trifluoromethylpentyl]benzonitrile] | activity as agonists |
| ≤ 100 | COc1ccc(F)cc1C(C)(C)CC(O)(Cc1cc(C)cc(C)c1)C(F)(F)F (stereo not shown) [2-(3,5-Dimethylbenzyl)-1,1,1-trifluoro-4-(5-fluoro-2-methoxyphenyl)-4-methylpentan-2-ol] | activity as agonists |
| ≤ 100 | COc1ccc(F)cc1C(C)(C)CC(O)(Cc1cc(Br)cc(Br)c1)C(F)(F)F (stereo not shown) [2-(3,5-Dibromobenzyl)-1,1,1-trifluoro-4-(5-fluoro-2-methoxyphenyl)-4-methylpentan-2-ol] | activity as agonists |

Further lines, the compound ahead of its results:

| Structure (SMILES) | IC50 [1] [nM] | activity as agonists of the glucocorticoid receptor function (glucocorticoid receptor) |
| --- | --- | --- |
| CC(C)(CC(O)(Cc1ccc(C#N)cc1Cl)C(F)(F)F)c1cccc2c1OCC2 (stereo not shown) [3-Chloro-4-[4-(2,3-dihydrobenzofuran-7-yl)-2-hydroxy-4-methyl-2-trifluoromethylpentyl]benzonitrile] | ≤ 100 | activity as agonists |
| CC(C)(CC(O)(Cc1cc(C(F)(F)F)cc(Cl)c1F)C(F)(F)F)c1cccc2ccoc12 (stereo not shown) [4-Benzofuran-7-yl-2-(3-chloro-2-fluoro-5-trifluoromethylbenzyl)-1,1,1-trifluoro-4-methylpentan-2-ol] | ≤ 100 | activity as agonists |
| Cc1cc(C)cc(CC(O)(CC(C)(C)c2cccc3c2OCC3)C(F)(F)F)c1 (stereo not shown) [4-(2,3-Dihydrobenzofuran-7-yl)-2-(3,5-dimethylbenzyl)-1,1,1-trifluoro-4-methylpentan-2-ol] | ≤ 100 | activity as agonists |
| COc1ccc(F)cc1C(C)(C)CC(O)(Cc1ccc(C(C)=O)cc1Cl)C(F)(F)F (stereo not shown) [1-{3-Chloro-4-[4-(5-fluoro-2-methoxyphenyl)-2-hydroxy-4-methyl-2-trifluoromethylpentyl]phenyl}ethanone] |  | activity as agonists |
| CC(C)(CC(O)(Cc1ccc(C#N)cc1Cl)C(F)(F)F)c1ccccc1 (stereo not shown) [3-Chloro-4-(2-hydroxy-4-methyl-4-phenyl-2-trifluoromethylpentyl)benzonitrile] |  | activity as agonists |
| Cc1ccc(C(C)(C)CC(O)(Cc2ccc(C#N)cc2Cl)C(F)(F)F)cc1 (stereo not shown) [3-Chloro-4-(2-hydroxy-4-methyl-4-p-tolyl-2-trifluoromethylpentyl)benzonitrile] |  | activity as agonists |
| CC(C)(CC(O)(Cc1ccc(C#N)cc1Cl)C(F)(F)F)c1cc(Br)cc2c1OCC2 (stereo not shown) [4-[4-(5-Bromo-2,3-dihydrobenzofuran-7-yl)-2-hydroxy-4-methyl-2-trifluoromethylpentyl]-3-chlorobenzonitrile] |  | activity as agonists |
| CC(C)(CC(O)(Cc1ccc(C#N)cc1Cl)C(F)(F)F)c1cc(F)cc2c1OCC2 (stereo not shown) [3-Chloro-4-[4-(5-fluoro-2,3-dihydrobenzofuran-7-yl)-2-hydroxy-4-methyl-2-trifluoromethylpentyl]benzonitrile] |  | activity as agonists |
| Cc1cc(Cl)cc(CC(O)(CC(C)(C)c2cc(F)ccc2O)C(F)(F)F)c1 (stereo not shown) [2-[3-(3-Chloro-5-methylbenzyl)-4,4,4-trifluoro-3-hydroxy-1,1-dimethylbutyl]-4-fluorophenol] | ≤ 100 | activity as agonists |
| Cc1cc(CC(O)(CC(C)(C)c2cc(F)ccc2O)C(F)(F)F)cc(C)c1C#N (stereo not shown) [4-[4-(5-Fluoro-2-hydroxyphenyl)-2-hydroxy-4-methyl-2-trifluoromethylpentyl]-2,6-dimethylbenzonitrile] |  | activity as agonists |
| CC(C)(CC(O)(Cc1ccc(C#N)cc1Cl)C(F)(F)F)c1cc(C#N)cc2c1OCC2 (stereo not shown) [7-[3-(2-Chloro-4-cyanobenzyl)-4,4,4-trifluoro-3-hydroxy-1,1-dimethylbutyl]-2,3-dihydrobenzofuran-5-carbonitrile] |  | activity as agonists |
| CC(C)(CC(O)(Cc1ccc(C#N)cc1Cl)C(F)(F)F)c1ccccc1C(F)(F)F (stereo not shown) [3-Chloro-4-[2-hydroxy-4-methyl-2-trifluoromethyl-4-(2-trifluoromethylphenyl)pentyl]benzonitrile] |  | activity as agonists |
| CC(C)(CC(O)(Cc1cc(Br)cc(Br)c1)C(F)(F)F)c1cc(F)ccc1O (stereo not shown) [2-[3-(3,5-Dibromobenzyl)-4,4,4-trifluoro-3-hydroxy-1,1-dimethylbutyl]-4-fluorophenol] | ≤ 100 | activity as agonists |
| COc1ccc(F)cc1C(C)(C)CC(O)(Cc1cc(C)c(C#N)c(C)c1)C(F)(F)F (stereo not shown) [4-[4-(5-Fluoro-2-methoxyphenyl)-2-hydroxy-4-methyl-2-trifluoromethylpentyl]-2,6-dimethylbenzonitrile] |  | activity as agonists |
